The text below walks through data of article PMC10458203, “The Amoebicidal Activity of Diferrocenyl Derivatives: A Significant Dependence on the Electronic Environment” (Molecules, 2023).

One series concerns amoeba trophozoites. On the set-up: method as in PMID 27863300. Conditions: cited from earlier work.
For series [1] the following is noted: cited from earlier work.
The conditions of series [2]: RP-TLC, methanol/water 80:20; standard deviation in parentheses, three determinations.
Series [3] concerns trophozoites of Entamoeba histolytica HM1:IMSS strain. Briefly: Amoebicidal (antiproliferative) activity on trophozoite cultures, viability by trypan blue / CFDA-propidium iodide. The class given is cell-based. The following applies: for increase in the amoebicidal activity: compared with the parent compound 3a. The method, then: Trophozoites of the E. histolytica HM1:IMSS strain were axenically grown by placing 1 × 10^5 live trophozoites in tubes with 3 mL of supplemented TYI-S33 medium. Amoebic trophozoite viability exposed to 1000, 100, 10, 1, 0.1, and 0.01 μM of each experimental compound was determined at 24, 48, and 72 h with trypan blue vital marker and confirmed with the fluorescent dyes carboxyfluorescein diacetate (CFDA) and propidium iodide. Either 100 μL of Trypan blue 0.4% or 1 μL of 5 μM CFDA (Invitrogen Molecular Probes, Inc., Eugene, OR, USA) and 1 μL of 1.5 μM propidium iodide were added to samples of 100 μL containing around 1 × 10^4 treated trophozoites, mixed, and incubated at room temperature for 15 min. The final solutions were mixed and incubated at room temperature for 15 min to perform the counting with an Olympus BX51 fluorescence microscope. The IC50 values were calculated by a multivariable regression using the amoebic viability curves for the tree times evaluated on GraphPad Prism 10.0.

Details of series [4]: method as in doi:10.1016/j.jorganchem.2017.05.002. Conditions: cited from earlier work.
Series [5] can be described thus: Electrochemical measurements (voltammetry) of redox potentials in acetonitrile. The class given is physicochemical. The following applies: TBATFB 0.1 M; for E(I) half-wave redox potential / E(II) half-wave redox potential: vs. Fc/Fc+. The protocol:
Two oxidation (Ia, IIa) and two reduction (Ic, IIc) processes with half-wave potential values E(I) = −0.022 V and E(II) = 0.164 V were observed. The electronic communication between both Ferrocene units was evaluated using the ΔE(II–I) to calculate the comproportionation constant (Kcom). According to the Kcom value 1563, the mixed-valence compound is a Class II compound in the Robin–Day classification with slight electronic delocalization between the two redox centers. This slight communication between iron ions allows the identification of two independent and sequential redox processes. It confirms the absence of chemical or adsorption processes associated with redox transformation (Figure 1b). Similar results were found for compound 3e (Table 1). The relationship between redox potential values found for compounds 3a–e follows the equation EII(V) = 1.01EI(V) + 0.1897 (R^2 = 0.9894, F = 280.7, Figure 2a).
Individual diferrocenylvinyloxazolines 3a–e (Figure 6) were isolated using Al2O3 column chromatography (activity grade III, elution with hexane-ether 4:1). In the solid state, fine crystalline substances of orange color represent them. The E and Z […] could be separated by a chromatographic column. In this work, only Z-enantiomers were employed, as described in the compound characterization. The structures of compounds 3a–e were determined based on mass spectrometry, FT-IR, ^1H, and ^13C NMR spectroscopy, and elemental analysis. UV–vis spectra of 3a–e were acquired using acetonitrile solutions at different concentrations in a Genesis 30 Spectrophotometer (Thermo Scientific, Waltham, MA, USA) from 325 to 1100 nm. Electrochemical measurements for compounds 3c and 3e were performed using conditions reported previously. Briefly, acetonitrile solutions at different concentrations of the compound with tetrabutylammonium tetrafluoroborate (TBATFB) 0.1M as a supporting electrolyte, platinum disk as a working electrode, and Ag/AgNO3 as a reference in a potentiostat/galvanostat (EG&G PAR 273). The scan rate was 0.1 V/s, from open circuit potential to positive direction. Bubbling N2 deoxygenated the working solution before each measurement.

Where [6] appears, read: E. histolytica HM1:IMSS trophozoites, viability curves at 24, 48 and 72 h, read-out: IC50.
Setting [7] is: logarithmic units of IC50 in µM.

Where “and” joins values, the source holds several entries; their conditions need not be identical. Equal values may be shown once. Read-outs that look alike come from different tables or passages of the source. Marks after values point to notes of the source that are not given here.

With `[Fe+2].c1cc[cH-]c1.c1ccc2c(c1)CCC1C2=Nc2ccccc2SC1[c-]1cccc1` (centres unmarked) [(5,6,6a,7-tetrahydrobenzo[b]naphtho [1,2-e][1,4]thiazepin-7-yl)ferrocene], the IC50 in the series on amoeba trophozoites was 7.5 µM. Besides, the redox potential result in series [1] was “+0.005 V”.

The logP is a log measure of how a compound divides between an organic and an aqueous phase. As for `CC1COC(/C(=C\[c-]2cccc2)[c-]2cccc2)=N1.[Fe+2].[Fe+2].c1cc[cH-]c1.c1cc[cH-]c1` (centres unmarked) [Compound 3b, 2-(Z-1,2-diferrocenylvinyl)-4-methyl-4,5-dihydrooxazole], the logP in series [2] is given as 4.76 (0.1). Further, the IC50 in series [3] (setting [6]) amounted to 100 ± 9 µM. Also, the “increase in the amoebicidal activity” value in series [3] worked out at 10 fold. The “−log (1/IC50)” value in series [3] (setting [7]) stood at 2. Further, the “E(I) redox potential” value is −0.019 ^a V in series [4] (acetonitrile, vs. Fc/Fc+) and −19 mV in series [4]. Further, the “E(II) redox potential” value in series [4] (acetonitrile, vs. Fc/Fc+) is given as 0.182 ^a V; in series [4], 182 mV.

Consider `C(=C(/C1=NCCN1)[c-]1cccc1)/[c-]1cccc1.[Fe+2].[Fe+2].c1cc[cH-]c1.c1cc[cH-]c1` [2-(Z-1,2-diferrocenylvinyl)-imidazoline], for which, in series [1], the “E(I) redox potential” value is given as 0.250 V and the “E(II) redox potential” value is reported as 0.437 V.

Take `CC(C)C1COC(/C(=C\[c-]2cccc2)[c-]2cccc2)=N1.[Fe+2].[Fe+2].c1cc[cH-]c1.c1cc[cH-]c1` (centres unmarked) [Compound 3c, 2-(Z-1,2-diferrocenylvinyl)-4-isopropyl-4,5-dihydrooxazole]: in series [2], the logP was 5.48 (0.1). Besides, in series [5], the “E(I) redox potential” value was −22 mV, the “E(II) redox potential” value is given as 167 mV, the “E(I) half-wave redox potential” value is −0.022 V and the “E(II) half-wave redox potential” value is 0.167 V. In series [3] (setting [6]), the IC50 was determined as 1890 µM.

Consider `Cc1ncc([N+](=O)[O-])n1CCO` [Metronidazole, reference compound], for which the IC50 was 7 ± 0.9 µM in series [3] (Entamoeba histolytica, E. histolytica HM1:IMSS trophozoites, viability curves at 24, 48 and 72 h, read-out: IC50); 6.92 µM in series [3] (Entamoeba histolytica, logarithmic units of IC50 in µM, read-out: −log (1/IC50) (converted)).

On to `C(=C(/C1=NCCS1)[c-]1cccc1)/[c-]1cccc1.[Fe+2].[Fe+2].c1cc[cH-]c1.c1cc[cH-]c1` [2-(Z-1,2-diferrocenylvinyl)-4,5-dihydro-1,3-thiazole], for which, in series [1], the “E(I) redox potential” value is 0.251 V and the “E(II) redox potential” value was 0.408 V.

As to `C(=C(/C1=NC(Cc2ccccc2)CO1)[c-]1cccc1)/[c-]1cccc1.[Fe+2].[Fe+2].c1cc[cH-]c1.c1cc[cH-]c1` (centres unmarked) [Compound 3e, 2-(Z-1,2-diferrocenylvinyl)-4-benzyl-4,5-dihydrooxazole], in series [2], the logP is listed as 6.1 (0.09). Besides, in series [5], the “E(I) redox potential” value is −65 mV, the “E(II) redox potential” value stood at 124 mV, the “E(I) half-wave redox potential” value is on record as −0.065 V and the “E(II) half-wave redox potential” value turned out to be 0.124 V. For the same compound, in series [3] (setting [6]), the IC50 was 385 ± 11 µM. In addition, the “increase in the amoebicidal activity” value in series [3] was 2.5 fold. Moreover, the “−log (1/IC50)” value in series [3] (setting [7]) turned out to be 2.58.

As to `COc1cc2c(c(OC)c1OC)CCC1C2=Nc2ccccc2SC1[c-]1cccc1.[Fe+2].c1cc[cH-]c1` (centres unmarked) [(2,3,4-trimethoxy-5,6,6a,7-tetrahydrobenzo[b]naphtho [1,2-e][1,4]thiazepin-7-yl)ferrocene], the IC50 in the series with amoeba trophozoites is 12.6 µM. Also, the redox potential result in series [1] is “+0.042 V”.

Take `C(=C(/C1=NC(c2ccccc2)CO1)[c-]1cccc1)/[c-]1cccc1.[Fe+2].[Fe+2].c1cc[cH-]c1.c1cc[cH-]c1` (centres unmarked) [Compound 3d, 2-(Z-1,2-diferrocenylvinyl)-4-phenyl-4,5-dihydrooxazole]: the logP in series [2] is 5.62 (0.2). Besides, the IC50 in series [3] (setting [6]) is 23 ± 3 µM. Also, the “increase in the amoebicidal activity” value in series [3] was “more than 40 fold”. The “−log (1/IC50)” value in series [3] (setting [7]) was found to be 1.36. In addition, in series [4] (acetonitrile, vs. Fc/Fc+), the “E(I) redox potential” value is −0.045 ^a V and the “E(II) redox potential” value is on record as 0.135 ^a V. For the same compound, in series [4], the “E(I) redox potential” value is −45 mV and the “E(II) redox potential” value is on record as 135 mV.

Take “2-(Z-2,3-diferrocenylvinyl)-4,5-dihydrooxazole [Compound 3a]”: the logP in series [2] is 4.42 (0.2). For the same compound, the IC50 in series [3] (setting [6]) was determined as 1000 ± 46 µM. The “−log (1/IC50)” value in series [3] (setting [7]) turned out to be 3. In series [4] (acetonitrile, vs. Fc/Fc+), the “E(I) redox potential” value was 0.116 V and 0.116 ^a V; the “E(II) redox potential” value was 0.305 V and 0.305 ^a V. For the same compound, in series [4], the “E(I) redox potential” value is 116 mV and the “E(II) redox potential” value is reported as 305 mV.
